Reference: patent US9822069B2, “Urea derivative or pharmacologically acceptable salt thereof” (KYORIN PHARMACEUTICAL CO. LTD., priority 2013, dated 2017)

Assays:
[1] = biological target: T1, human FPRL1 (Homo sapiens, UniProt P25090); experiment: Measurement test of agonist activity on human FPRL1 (test of calcium mobilization in cell, HEK293 with human FPRL1 and Gα15 expression vectors); format: cell-based; conditions: calcium mobilization in HEK293 cells with human FPRL1 and Gα15 expression vectors
T1 construct: expressed in transfected cells; host or cells: HEK293 (JCRB9068, NIBIO), transient transfection with pCMV-script vectors using Lipofectamine 2000
T1 sequence (P25090 1-351): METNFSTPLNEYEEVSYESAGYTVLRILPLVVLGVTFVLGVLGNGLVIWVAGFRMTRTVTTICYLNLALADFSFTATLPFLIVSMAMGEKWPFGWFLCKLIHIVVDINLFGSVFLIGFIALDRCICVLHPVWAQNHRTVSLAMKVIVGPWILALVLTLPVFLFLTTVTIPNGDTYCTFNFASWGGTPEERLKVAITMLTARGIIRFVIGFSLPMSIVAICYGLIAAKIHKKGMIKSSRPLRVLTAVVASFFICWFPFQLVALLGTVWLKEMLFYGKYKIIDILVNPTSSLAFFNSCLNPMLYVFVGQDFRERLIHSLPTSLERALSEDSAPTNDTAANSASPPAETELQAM
In short: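 HEK293 transiently co-transfected with human FPRL1 and Gα15, plated 24 h before assay, loaded with Fluo-4 NW dye plus probenecid. Compounds in eight 10-fold dilutions (DMSO stocks 10^−2 to 10^−9 M, then diluted 100-fold in assay buffer); calcium mobilization read on Flexstation for EC50.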

[2] = tested on: mouse (BALB/c, male); experiment: Effect of lipopolysaccharide induction on neutrophilic infiltration in mouse lung; format: in vivo; conditions: neutrophil infiltration in BAL fluid, LPS-exposed BALB/c mouse, oral; for inhibition in vivo at 1 mg/kg / inhibition in vivo at 3 mg/kg: 5 h, read-out: SUPPRESSION RATIO
Experimental: Effect of Lipopolysaccharide Induction on Neutrophilic Infiltration in Mouse Lung A compound to be tested was orally administrated to a mouse (BALB/c, male), and after 30 minutes, the mouse was placed in a plastic container. Lipopolysaccharide (0.3 mg/mL) dissolved in physiological saline was aerosolized with an ultrasonic wave nebulizer (NE-U17, OMRON Corporation), and exposed to the mouse for 10 minutes. After 5 hours, the anesthetized mouse was sacrificed by exsanguination. A cannula was inserted in the respiratory tract and bronchoalveolar lavage (BAL) with 1 mL of 0.85% NaCl liquid containing 0.4% sodium citrate was carried out. This operation was repeated 3 times, to obtain a BAL fluid. The BAL fluid was centrifuged at 4° C. and ×200 g for 5 minutes, and the pellet was suspended in a physiological saline containing 0.1% BSA. The number of white blood cells was counted using Turks solution with a microscope, and the total white blood cell count was calculated. The white blood cells were fixed on a glass slide using Cytospin 3 (Thermo BioAnalysis Japan K. K.). The cells were stained with Diff-Quik (SYSMEX INTERNATIONAL REAGENTS CO., LTD.), and the number thereof was counted with a microscope, and the neutrophil ratio was calculated. The neutrophil ratio was multiplied by the total white blood cell count to calculate the total neutrophil count. An effect of the compound to be tested represents a percentage (%) of suppression ratio relative to the neutrophil count in a control.

Row | Compound | EC50 [1] | also measured
1 | O=C(Nc1ccc(F)cc1)N[C@@H]1C(=O)NC[C@H]1c1cc2c(cc1F)OCC2 (single isomer, unassigned) [EXAMPLE 1-16, (−)-1-[(3S*,4R*)-4-(6-fluoro-2,3-dihydrobenzofuran-5-yl)-2-oxopyrrolidin-3-yl]-3-(4-fluorophenyl)urea] | 240 pM | inhibition in vivo at 1 mg/kg [2]: 95.8%
2 | CCN1C[C@@H](c2ccc(OC)cc2)[C@H](NC(=O)Nc2ccc(F)cc2)C1=O (relative stereo) [Example 12-1, (−)-1-[(3S*,4R*)-1-Ethyl-4-(4-methoxyphenyl)-2-oxopyrrolidin-3-yl]-3-(4-fluorophenyl) urea] | 130 pM | inhibition in vivo at 3 mg/kg ([2]; dose 3 mg/kg): 97.4%
3 | COc1cc(F)c([C@@H]2CNC(=O)[C@H]2NC(=O)Nc2ccc(C#N)cc2)c(F)c1 (single isomer, unassigned) [EXAMPLE 1-23, (−)-1-(4-cyanophenyl)-3-[(3S*,4R*)-4-(2,6-difluoro-4-methoxyphenyl)-2-oxopyrrolidin-3-yl]urea] | 780 pM | inhibition in vivo at 3 mg/kg ([2]; dose 3 mg/kg): 98.9%
4 | COc1ccc([C@@H]2CNC(=O)C2NC(=O)Nc2ccc(Cl)cc2)cc1 (mixture of isomers) [Example 1-53, (±)-trans-1-(4-chlorophenyl)-3-[4-(4-methoxyphenyl)-2-oxopyrrolidin-3-yl]urea] | 180 pM | inhibition in vivo at 1 mg/kg [2]: 78.9%
5 | COc1ccc([C@@H]2CN(C)C(=O)[C@H]2NC(=O)Nc2ccc(F)cc2)cc1 (relative stereo) [EXAMPLE 1-7, 1-(4-fluorophenyl)-3-[(3S*,4R*)-4-(4-methoxyphenyl)-1-methyl-2-oxopyrrolidin-3-yl]urea] | 220 pM | inhibition in vivo at 1 mg/kg [2]: 96.9%
6 | COc1cc(F)c([C@@H]2CNC(=O)[C@H]2NC(=O)Nc2ccc(C)c(O)c2)c(F)c1 (relative stereo) [Example 1-68, (−)-1-[(3S*,4R*)-4-(2,6-difluoro-4-methoxyphenyl)-2-oxopyrrolidin-3-yl]-3-(3-hydroxy-4-methyl)phenyl)urea] | 80 pM | SUPPRESSION RATIO (%) ([2]; dose 3 mg/kg): 85.6%
7 | COc1ccc([C@@H]2CNC(=O)[C@H]2NC(=O)Nc2ccc(F)cc2)c(Cl)c1 (relative stereo) [EXAMPLE 1-10, 1-[(3S*,4R*)-4-(2-chloro-4-methoxyphenyl)-2-oxopyrrolidin-3-yl]-3-(4-fluorophenyl)urea] | 3980 pM | 
8 | COc1c(F)cc([C@@H]2CNC(=O)[C@H]2NC(=O)Nc2ccc(F)cc2)cc1F (single isomer, unassigned) [EXAMPLE 1-14, (−)-1-[(3S*,4R*)-4-(3,5-difluoro-4-methoxyphenyl)-2-oxopyrrolidin-3-yl]-3-(4-fluorophenyl)urea] | 4120 pM | 
9 | COc1ccc([C@@H]2CNC(=O)[C@H]2NC(=O)Nc2ccc(F)cc2)c(C)c1 (single isomer, unassigned) [EXAMPLE 1-11, (−)-1-(4-fluorophenyl)-3-[(3S*,4R*)-4-(4-methoxy-2-methylphenyl)-2-oxopyrrolidin-3-yl]urea] | 1590 pM | 
10 | COc1cc(F)c([C@@H]2CNC(=O)[C@H]2NC(=O)Nc2cccc(C#N)c2)c(F)c1 (relative stereo) [Example 7-12, (−)-1-(3-cyanophenyl)-3-[(3S*,4R*)-4-(2,6-difluoro-4-methoxyphenyl)-2-oxopyrrolidin-3-yl]urea] | 3900 pM | 
11 | CNC(=O)CN1C[C@@H](c2ccc(OC)cc2)[C@H](NC(=O)Nc2ccc(F)cc2)C1=O (relative stereo) [Example 17-1, (−)-2-{(3S*,4R*)-3-[3-(4-Fluorophenyl)ureido]-4-(4-methoxyphenyl)-2-oxopyrrolidin-1-yl}-N-methylacetamide] | 110 pM | 
12 | COc1cc(F)c([C@@H]2CNC(=O)[C@H]2NC(=O)Nc2ccc(C3CC3)cc2)c(F)c1 (relative stereo) [Example 1-62, (−)-1-(4-cyclopropylphenyl)-3-[(3S*,4R*)-4-(2,6-difluoro-4-methoxyphenyl)-2-oxopyrrolidin-3-yl]urea] | 1050 pM | 
13 | CSc1ccc([C@@H]2CNC(=O)[C@H]2NC(=O)Nc2ccc(F)cc2)cc1 (single isomer, unassigned) [EXAMPLE 1-20, (−)-1-(4-fluorophenyl)-3-[(3S*,4R*)-4-(4-methylthiophenyl)-2-oxopyrrolidin-3-yl]urea] | 1750 pM | 

Further lines, with some results ahead:

Row | EC50 [1] | Compound | also measured
14 | 130 pM | O=C(Nc1ccc(F)cc1)N[C@@H]1/C(=N/OCCO)NC[C@H]1c1cc2c(cc1F)OCC2 (single isomer, unassigned) [EXAMPLE 32-19, (−)-1-((3S*,4R*,Z)-4-(6-fluoro-2,3-dihydrobenzofuran-5-yl)-2-[(2-hydroxyethoxy)imino]pyrrolidin-3-yl)-3-(4-fluorophenyl)urea] | 
15 | 150 pM | CCOC(=O)CN1C[C@@H](c2c(F)cc(OC)cc2F)[C@H](NC(=O)Nc2ccc(F)cc2)C1=O (single isomer, unassigned) [EXAMPLE 24-16, (−)-2-{(3S*,4R*)-4-(2,6-difluoro-4-methoxyphenyl)-3-[3-(4-fluorophenyl)ureido]-2-oxopyrrolidin-1-yl}acetic acid ethyl ester] | 
16 | 30 pM | COc1cc(F)c([C@@H]2CN(CS(N)(=O)=O)C(=O)[C@H]2NC(=O)Nc2ccc(F)cc2)c(F)c1 (relative stereo) [Example 24-15, (−)-{(3S*,4R*)-4-(2,6-difluoro-4-methoxyphenyl)-3-[3-(4-fluorophenyl)ureido]-2-oxopyrrolidin-1-yl}methanesulfonamide] | 
17 | 330 pM | O=C(Nc1ccc(F)cc1)N[C@@H]1C(=O)N(CCO)C[C@H]1c1cc2c(cc1F)OCC2 (single isomer, unassigned) [EXAMPLE 24-19, (−)-1-[(3S*,4R*)-4-(6-fluoro-2,3-dihydrobenzofuran-5-yl)-1-(2-hydroxyethyl)-2-oxopyrrolidin-3-yl]-3-(4-fluorophenyl)urea] | 
18 | 390 pM | COc1cc(F)c([C@@H]2CN(CCO)C(=O)[C@H]2NC(=O)Nc2ccc(C#N)cc2)c(F)c1 (relative stereo) [Example 24-8, (−)-1-(4-cyanophenyl)-3-[(3S*,4R*)-4-(2,6-difluoro-4-methoxyphenyl)-1-(2-hydroxyethyl)-2-oxopyrrolidin-3-yl]urea] | 
19 | 1420 pM | CNc1cc(F)c([C@@H]2CNC(=O)[C@H]2NC(=O)Nc2ccc(F)cc2)c(F)c1 (single isomer, unassigned) [EXAMPLE 28-5, (−)-1-{(3S*,4R*)-4-[2,6-Difluoro-4-(methylamino)phenyl]-2-oxopyrrolidin-3-yl}-3-(4-fluorophenyl) urea] | 
20 | 20 pM | COc1cc(F)c([C@@H]2CN(Cc3ncc(C)o3)C(=O)[C@H]2NC(=O)Nc2ccc(F)cc2)c(F)c1 (single isomer, unassigned) [EXAMPLE 24-17, (−)-1-{(3S*,4R*)-4-(2,6-difluoro-4-methoxyphenyl)-1-[(5-methyloxazol-2-yl)methyl]-2-oxopyrrolidin-3-yl}-3-(4-fluorophenyl)urea] | 
21 | 370 pM | C/N=C1\NC[C@@H](c2c(F)cc(OC)cc2F)[C@@H]1NC(=O)Nc1ccc(F)cc1 (relative stereo) [EXAMPLE 32-6, 1-[(3S*,4R*,Z)-4-(2,6-difluoro-4-methoxyphenyl)-2-(methylimino)pyrrolidin-3-yl]-3-(4-fluorophenyl)urea] | 
22 | 30 pM | COc1cc(F)c([C@@H]2CN/C(=N\O)[C@H]2NC(=O)Nc2ccc(F)cc2)c(F)c1 (single isomer, unassigned) [EXAMPLE 33-2, (−)-1-((3S*,4R*,Z)-4-(2,6-Difluoro-4-methoxyphenyl)-2-(hydroxyimino)pyrrolidin-3-yl)-3-(4-fluorophenyl)urea] | 
23 | 1940 pM | NC(=O)c1cc(F)c([C@@H]2CNC(=O)[C@H]2NC(=O)Nc2ccc(F)cc2)c(F)c1 (single isomer, unassigned) [EXAMPLE 31-1, (−)-3,5-Difluoro-4-{(3R*,4S*)-4-[3-(4-fluorophenyl)ureido]-5-oxopyrrolidin-3-yl}benzamide] | 
24 | 250 pM | COc1cc(F)c([C@@H]2CN/C(=N\OCCO)[C@H]2NC(=O)Nc2ccc(C#N)cc2)c(F)c1 (single isomer, unassigned) [EXAMPLE 32-13, (−)-1-(4-cyanophenyl)-3-{(3S*,4R*,Z)-4-(2,6-difluoro-4-methoxyphenyl)-2-[(2-hydroxyethoxy)imino]pyrrolidin-3-yl}urea] | 
